Molecular target: T1, human orexin-2 (hOX2) receptors (Homo sapiens, UniProt O43614)
T1 construct: expressed in transfected cells
T1 sequence (O43614 1-444): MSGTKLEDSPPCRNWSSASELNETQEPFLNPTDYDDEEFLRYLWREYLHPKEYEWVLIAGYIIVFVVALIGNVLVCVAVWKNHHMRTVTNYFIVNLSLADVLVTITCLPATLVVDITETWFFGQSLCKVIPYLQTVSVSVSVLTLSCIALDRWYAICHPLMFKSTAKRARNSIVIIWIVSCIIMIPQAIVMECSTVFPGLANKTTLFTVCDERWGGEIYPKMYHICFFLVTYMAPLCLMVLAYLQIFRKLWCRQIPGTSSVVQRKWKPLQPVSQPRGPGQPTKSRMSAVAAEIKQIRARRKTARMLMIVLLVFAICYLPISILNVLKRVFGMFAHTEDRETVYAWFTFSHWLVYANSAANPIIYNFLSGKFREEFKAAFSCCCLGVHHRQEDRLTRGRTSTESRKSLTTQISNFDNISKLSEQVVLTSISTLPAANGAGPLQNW
Assay: Intracellular Ca2+ mobilization assay (FLIPR), antagonism of orexin-A
Type: cell-based
Details: CHO(dHFr-) cells stably expressing hOX2; orexin-A at EC80 as agonist; antagonist applied 25 min before; Kb=IC50/(1+[A]/EC50); read-out: Kb (μM) OX2R (human)
Experimental: Intracellular Ca^2+ Mobilization Assay
The Chinese Hamster Ovary (dHFr—) mutant cell line stably expressing human orexin-1 (hOX1) or human orexin-2 (hOX2) receptors were maintained in Dulbecco's Modified Eagle Medium (1X) with GlutaMax™ 1, 4500 mg/L D-Glucose and Sodium Pyruvate (Catalog No. 31966-021, Invitrogen, Carlsbad, Calif.), 5% dialyzed fetal calf serum (Catalog No. 26400-044), 100 μg/ml penicillin and 100 μg/ml streptomycin. The cells were seeded at 5×10^4 cells/well in the poly-D-lysine treated, 96-well, black/clear-bottomed plates (Catalog No. BD356640, BD Biosciences, Palo Alto, Calif.). 24 h later, the cells were loaded for 1 h at 37° C. with 4 μM Flou-4 acetoxymethyl ester (Catalog No. F-14202, Molecular Probes, Eugene, Oreg.) in FLIPR buffer (1×HBSS, 20 mM HEPES, 2.5 mM Probenecid). Hanks' Balanced Salt Solution (HBSS) (10×) (catalog No. 14065-049) and HEPES (1M) (catalog No. 15630-056) were purchased from Invitrogen, Carlsbad, Calif. Probenecid (250 mM) (catalog No. P8761) was from Sigma, Buchs, Switzerland. The cells were washed five times with FLIPR buffer to remove excess dye and intracellular calcium mobilization, [Ca^2+]i were measured using a Fluorometric Imaging Plate Reader (FLIPR-96, Molecular Devices, Menlo Park, Calif.) as described previously (Malherbe et al., Mol. Pharmacol., 64, 823-832, 2003). Orexin A (catalog No. 1455, Toris Cookson Ltd, Bristol, UK) was used as agonist. Orexin A (50 mM stock solution in DMSO) was diluted in FLIPR buffer +0.1% BSA. The EC50 and EC80 values of orexin-A were measured daily from standard agonist concentration-response curves in CHO(dHFr—)—OX1R and —OX2R cell lines. All compounds were dissolved in 100% DMSO. Inhibition curves were determined by addition of 11 concentrations (0.0001-10 μM) of inhibitory compounds and using EC80 value of orexin-A as agonist (a concentration which gave 80% of max agonist response, determined daily). The antagonists were applied 25 min (incubation at 37° C.) before the application of the agonist. Responses were measured as peak increase in fluorescence minus basal, normalized to the maximal stimulatory effect induced by EC80 value of orexin-A or orexin- B. Inhibition curves were fitted according to the Hill equation: y=100/(1+(x/IC50)^nH), where nH=slope factor using Excel-fit 4 software (Microsoft). Kb values were calculated according to the following equation Kb=IC50/(1+[A]/EC50) where A is the concentration of agonist added which is very close to agonist EC80 value, and IC50 and EC50 values were derived from the antagonist inhibition and orexin-A or B agonist curves, respectively.

| Kb | SMILES |
| --- | --- |
| 0.068 µM | Cc1ccc(N(CCc2ccc(C(F)(F)F)nc2)C(=O)C(C)(O)c2ccccc2)cc1C (racemic) [Example 27, (R,S)—N-(3,4-Dimethyl-phenyl)-2-hydroxy-2-phenyl-N-[2-(6-trifluoromethyl-pyridin-3-yl)-ethyl]-propionamide] |
| 0.0943 µM | Cc1ccc(CCN(C(=O)C(N)c2ccc(Cl)cc2)c2sc(C)nc2C)cc1 (racemic) [Example 32, (R,S)-2-Amino-2-(4-chloro-phenyl)-N-(2,4-dimethyl-thiazol-5-yl)-N-(2-p-tolyl-ethyl)-acetamide] |
| 0.061 µM | COc1ccc(N(CCc2ccc(C(F)(F)F)cc2)C(=O)C(N)c2ccccc2)cn1 (racemic) [Example 36, (R,S)-2-Amino-N-(6-methoxy-pyridin-3-yl)-2-phenyl-N-[2-(4-trifluoromethyl-phenyl)-ethyl]-acetamide] |
| 0.0439 µM | Cc1cc(N(CCc2ccc(C(F)(F)F)cc2)C(=O)C(N)c2ccc(Cl)cc2)n(C)n1 (racemic) [Example 39, (R,S)-2-Amino-2-(4-chloro-phenyl)-N-(2,5-dimethyl-2H-pyrazol-3-yl)-N-[2-(4-trifluoromethyl-phenyl)-ethyl]-acetamide] |
| 0.0785 µM | Cc1cc(N(CCc2ccc(C(F)(F)F)cc2)C(=O)C(O)c2ccccc2)n(C)n1 (racemic) [Example 42, (R,S)—N-(2,5-Dimethyl-2H-pyrazol-3-yl)-2-hydroxy-2-phenyl-N-[2-(4-trifluoromethyl-phenyl)-ethyl]-acetamide] |
| 0.0078 µM | Cn1ccc2ccc(N(CCc3ccc(C(F)(F)F)cn3)C(=O)C(O)c3ccc(F)cc3)cc21 (racemic) [Example 54, (R,S)-2-(4-Fluoro-phenyl)-2-hydroxy-N-(1-methyl-1H-indol-6-yl)-N-[2-(5-trifluoromethyl-pyridin-2-yl)-ethyl]-acetamide] |
| 0.0313 µM | O=C([C@H](O)c1ccc(F)cc1)N(CCc1ccc(C(F)(F)F)cn1)c1ccc2c(c1)CCC2 (racemic) [Example 73, (R,S)-2-(4-Fluoro-phenyl)-2-hydroxy-N-indan-5-yl-N-[2-(5-trifluoromethyl-pyridin-2-yl)-ethyl]-acetamide] |
| 0.013 µM | O=C(C(O)c1ccc(F)cc1)N(CCc1ccc(C(F)(F)F)cn1)c1ccc2c(c1)CCO2 (racemic) [Example 75, (R,S)—N-(2,3-Dihydro-benzofuran-5-yl)-2-(4-fluoro-phenyl)-2-hydroxy-N-[2-(5-trifluoromethyl-pyridin-2-yl)-ethyl]-acetamide] |
| 0.026 µM | COc1cccc(N(CCc2ccc(C(F)(F)F)cn2)C(=O)C(O)c2ccc(F)cc2)c1 (racemic) [Example 76, (R,S)-2-(4-Fluoro-phenyl)-2-hydroxy-N-(3-methoxy-phenyl)-N-[2-(5-trifluoromethyl-pyridin-2-yl)-ethyl]-acetamide] |
| 0.0075 µM | Cc1cc(N(CCc2ccc(C(F)(F)F)cn2)C(=O)C(O)c2ccc(F)cc2)ccc1F (racemic) [Example 77, (R,S)—N-(4-Fluoro-3-methyl-phenyl)-2-(4-fluoro-phenyl)-2-hydroxy-N-[2-(5-trifluoromethyl-pyridin-2-yl)-ethyl]-acetamide] |
| 0.0481 µM | Cc1ccc(N(CCc2ccc(C(F)(F)F)cn2)C(=O)C(O)c2ccc(F)cc2)cc1F (racemic) [Example 78, (R,S)—N-(3-Fluoro-4-methyl-phenyl)-2-(4-fluoro-phenyl)-2-hydroxy-N-[2-(5-trifluoromethyl-pyridin-2-yl)-ethyl]-acetamide] |
| 0.0236 µM | COc1cc(N(CCc2ccc(C(F)(F)F)cn2)C(=O)C(O)c2ccc(F)cc2)ccc1Cl (racemic) [Example 79, (R,S)—N-(4-Chloro-3-methoxy-phenyl)-2-(4-fluoro-phenyl)-2-hydroxy-N-[2-(5-trifluoromethyl-pyridin-2-yl)-ethyl]-acetamide] |
| 0.0106 µM | COc1cc(N(CCc2ccc(C(F)(F)F)cn2)C(=O)C(O)c2ccc(F)cc2)ccc1F (racemic) [Example 88, (R,S)—N-(4-Fluoro-3-methoxy-phenyl)-2-(4-fluoro-phenyl)-2-hydroxy-N-[2-(5-trifluoromethyl-pyridin-2-yl)-ethyl]-acetamide] |
| 0.0438 µM | O=C(C(O)c1ccc(F)cc1)N(CCc1ccc(C(F)(F)F)cn1)c1ccc(F)c(CO)c1 (racemic) [Example 90, (R,S)—N-(4-Fluoro-3-hydroxymethyl-phenyl)-2-(4-fluoro-phenyl)-2-hydroxy-N-[2-(5-trifluoromethyl-pyridin-2-yl)-ethyl]-acetamide] |
| 0.0146 µM | COc1ccc(N(CCc2ccc(C(F)(F)F)cn2)C(=O)C(O)c2ccc(F)cc2)cc1C (racemic) [Example 93, (R,S)-2-(4-Fluoro-phenyl)-2-hydroxy-N-(4-methoxy-3-methyl-phenyl)-N-[2-(5-trifluoromethyl-pyridin-2-yl)-ethyl]-acetamide] |
| 0.0195 µM | Cc1ccc(N(CCc2ccc(C(F)(F)F)cn2)C(=O)C(O)c2ccc(F)cc2)cc1OC(F)F (racemic) [Example 95, (R,S)-N-(3-Difluoromethoxy-4-methyl-phenyl)-2-(4-fluoro-phenyl)-2-hydroxy-N-[2-(5-trifluoromethyl-pyridin-2-yl)-ethyl]-acetamide] |
| 0.0216 µM | O=C(C(O)c1ccc(F)cc1)N(CCc1ccc(C(F)(F)F)cn1)c1ccc(OC(F)F)c(OC(F)F)c1 (racemic) [Example 96, (R,S)—N-(3,4-Bis-difluoromethoxy-phenyl)-2-(4-fluoro-phenyl)-2-hydroxy-N-[2-(5-trifluoromethyl-pyridin-2-yl)-ethyl]-acetamide] |
| 0.0276 µM | CCc1cc(N(CCc2ccc(C(F)(F)F)cn2)C(=O)C(O)c2ccc(F)cc2)ccc1Cl (racemic) [Example 97, (R,S)-N-(4-Chloro-3-ethyl-phenyl)-2-(4-fluoro-phenyl)-2-hydroxy-N-[2-(5-trifluoromethyl-pyridin-2-yl)-ethyl]-acetamide] |
| 0.0216 µM | O=C(C(O)c1ccc(F)cc1)N(CCc1ccc(C(F)(F)F)cn1)c1ccc(Cl)c(CO)c1 (racemic) [Example 98, (R,S)—N-(4-Chloro-3-hydroxymethyl-phenyl)-2-(4-fluoro-phenyl)-2-hydroxy-N-[2-(5-trifluoromethyl-pyridin-2-yl)-ethyl]-acetamide] |
| 0.0285 µM | COC(=O)c1cc(N(CCc2ccc(C(F)(F)F)cn2)C(=O)C(O)c2ccc(F)cc2)ccc1Cl (racemic) [Example 99, (R,S)-2-Chloro-5-{[2-(4-fluoro-phenyl)-2-hydroxy-acetyl]-[2-(5-trifluoromethyl-pyridin-2-yl)-ethyl]-amino}-benzoic acid methyl ester] |
| 0.0239 µM | O=C(C(O)c1ccc(F)cc1)N(CCc1ccc(C(F)(F)F)cn1)c1ccc(Cl)c(OC2CC2)c1 (racemic) [Example 103, (R,S)—N-(4-Chloro-3-cyclopropoxy-phenyl)-2-(4-fluoro-phenyl)-2-hydroxy-N-[2-(5-trifluoromethyl-pyridin-2-yl)-ethyl]-acetamide] |
| 0.0116 µM | O=C([C@@H](O)c1ccc(F)cc1)N(CCc1ccc(C(F)(F)F)nc1)c1ccc2c(c1)C(O)CCO2 (single isomer, unassigned) [Example 101, (S)-2-(4-Fluoro-phenyl)-2-hydroxy-N—((R or S)-4-hydroxy-chroman-6-yl)-N-[2-(6-trifluoromethyl-pyridin-3-yl)-ethyl]-acetamide] |
| 0.0116 µM | O=C([C@@H](O)c1ccc(F)cc1)N(CCc1ccc(C(F)(F)F)nc1)c1ccc2c(c1)C(O)CCO2 (single isomer, unassigned) [Example 102, (S)-2-(4-Fluoro-phenyl)-2-hydroxy-N-((S or R)-4-hydroxy-chroman-6-yl)-N-[2-(6-trifluoromethyl-pyridin-3-yl)-ethyl]-acetamide] |

Reference: patent US8133909B2 (Hoffmann-La Roche Inc., priority 2008, dated 2012)
